This passage reports IC50 results from patent US12187723B2 (BRISTOL-MYERS SQUIBB COMPANY, priority 2019, dated 2025).

One test has as its target T1, human TLR7 (Homo sapiens, UniProt Q9NYK1).
T1 construct: host or cells: HEK-Blue cells
T1 sequence (Q9NYK1 27-1049): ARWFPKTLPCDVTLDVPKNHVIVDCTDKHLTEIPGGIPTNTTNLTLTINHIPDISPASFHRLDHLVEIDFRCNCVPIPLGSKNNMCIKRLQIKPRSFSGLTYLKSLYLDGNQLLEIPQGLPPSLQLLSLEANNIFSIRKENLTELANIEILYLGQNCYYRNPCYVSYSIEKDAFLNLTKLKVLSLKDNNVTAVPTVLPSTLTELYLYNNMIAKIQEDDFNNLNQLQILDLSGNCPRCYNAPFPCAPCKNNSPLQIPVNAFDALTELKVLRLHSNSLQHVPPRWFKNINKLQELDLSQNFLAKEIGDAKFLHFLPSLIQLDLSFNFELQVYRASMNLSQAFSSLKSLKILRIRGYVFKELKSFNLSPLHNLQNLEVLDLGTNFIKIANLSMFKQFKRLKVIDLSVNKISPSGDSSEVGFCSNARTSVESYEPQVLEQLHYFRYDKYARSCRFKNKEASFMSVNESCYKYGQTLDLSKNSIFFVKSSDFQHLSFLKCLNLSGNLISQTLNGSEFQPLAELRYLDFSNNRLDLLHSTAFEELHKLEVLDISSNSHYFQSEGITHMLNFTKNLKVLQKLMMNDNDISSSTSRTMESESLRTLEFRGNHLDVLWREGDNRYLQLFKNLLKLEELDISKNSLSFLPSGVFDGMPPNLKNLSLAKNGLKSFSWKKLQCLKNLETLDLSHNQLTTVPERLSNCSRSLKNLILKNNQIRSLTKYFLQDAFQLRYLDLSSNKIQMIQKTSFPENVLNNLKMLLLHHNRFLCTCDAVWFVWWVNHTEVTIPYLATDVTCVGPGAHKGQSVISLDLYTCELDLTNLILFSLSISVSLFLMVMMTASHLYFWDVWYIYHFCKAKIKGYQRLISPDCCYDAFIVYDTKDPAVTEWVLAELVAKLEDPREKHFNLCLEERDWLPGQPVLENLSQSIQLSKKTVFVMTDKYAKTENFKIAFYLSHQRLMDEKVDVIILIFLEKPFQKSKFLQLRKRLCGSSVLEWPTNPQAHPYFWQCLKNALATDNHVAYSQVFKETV
Kind of test: TLR7 inhibition reporter assay (HEK-Blue SEAP). To be noted: HEK-Blue cells overexpressing human TLR7, gardiquimod 7.5 μM, 22 hour incubation. Type of test: cell-based. The procedure, abridged: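 22 h, 37° C, 5% CO2 incubation; compounds 0.05 nM-50 μM final; TLR7 cells 15000/well, TLR8 20,000/well. Readout: SEAP via HEK-Blue Detection medium. % inhibition = signal reduction versus agonist + DMSO wells, referenced to known inhibitor.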
A general note: A reporter such as luciferase makes a cellular process visible.

A further test deals with T2, human TLR8 (Homo sapiens, UniProt Q9NR97).
T2 construct: host or cells: HEK-Blue cells
T2 sequence (Q9NR97 27-1041): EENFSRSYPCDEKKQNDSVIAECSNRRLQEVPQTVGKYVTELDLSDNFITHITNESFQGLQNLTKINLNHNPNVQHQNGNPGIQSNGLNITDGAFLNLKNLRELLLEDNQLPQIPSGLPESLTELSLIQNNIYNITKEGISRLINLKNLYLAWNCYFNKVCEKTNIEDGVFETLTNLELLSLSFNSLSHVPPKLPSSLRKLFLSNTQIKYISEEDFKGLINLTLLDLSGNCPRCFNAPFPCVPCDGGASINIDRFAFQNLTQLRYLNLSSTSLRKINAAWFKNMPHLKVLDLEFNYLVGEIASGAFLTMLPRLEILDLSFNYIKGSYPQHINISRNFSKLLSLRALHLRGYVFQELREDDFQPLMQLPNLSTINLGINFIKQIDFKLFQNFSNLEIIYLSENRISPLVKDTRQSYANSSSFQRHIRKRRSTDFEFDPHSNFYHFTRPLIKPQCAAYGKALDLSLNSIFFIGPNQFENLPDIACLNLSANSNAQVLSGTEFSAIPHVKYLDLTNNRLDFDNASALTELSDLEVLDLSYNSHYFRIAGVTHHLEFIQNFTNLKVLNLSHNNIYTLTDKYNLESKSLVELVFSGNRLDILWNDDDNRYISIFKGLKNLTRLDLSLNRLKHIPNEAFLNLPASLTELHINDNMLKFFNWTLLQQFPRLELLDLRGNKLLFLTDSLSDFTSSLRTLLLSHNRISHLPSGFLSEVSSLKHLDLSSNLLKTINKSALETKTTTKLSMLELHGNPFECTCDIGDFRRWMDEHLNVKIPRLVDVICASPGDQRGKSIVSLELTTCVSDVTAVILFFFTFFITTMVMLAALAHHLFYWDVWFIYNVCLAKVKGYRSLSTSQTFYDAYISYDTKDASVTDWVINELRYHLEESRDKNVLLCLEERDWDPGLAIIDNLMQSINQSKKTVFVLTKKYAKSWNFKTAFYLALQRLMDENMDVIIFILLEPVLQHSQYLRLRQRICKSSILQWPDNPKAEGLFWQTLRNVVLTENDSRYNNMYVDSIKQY
Kind of test: TLR8 inhibition reporter assay (HEK-Blue SEAP). The settings on record: HEK-Blue cells overexpressing human TLR8, R848 15.9 μM, 22 hour incubation. It is filed as cell-based. The procedure, abridged:
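Compound treatment: 30 min, RT, 0.05 nM–50 μM final. Agonist: TLR7 gardiquimod 7.5 μM; TLR8 R848 15.9 μM; TLR9 ODN2006 5 nM. Incubation 22 h, 37 °C, 5% CO2. Readout SEAP, HEK-Blue Detection.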

Consider `COc1cc(-c2cc3[nH]c(=O)n(C4CCC(N5CCC6(CC5)COC6)CC4)c3cc2C(C)C)cn2ncnc12` (centres unmarked) [Example 240, 1-(4-(2-oxa-7-azaspiro[3.5]nonan-7-yl)cyclohexyl)-6-isopropyl-5-(8-methoxy-[1,2,4]triazolo[1,5-a]pyridin-6-yl)-1,3-dihydro-2H-benzo[d]imidazol-2-one], for which the IC50 is 3.52 nM against human TLR7 and 0.13 nM on human TLR8.
Regarding `CCC(CC)CN[C@H]1CC[C@@H](n2c(=O)[nH]c3cc(-c4cc(OC)c5ncnn5c4)c(C(C)C)cc32)CC1` [Example 194], the values for the IC50 on human TLR7 and against human TLR8 were 2.28 nM and 0.11 nM, respectively.
Take `COc1cc(-c2cc3[nH]c(=O)n([C@H]4CC[C@@H](NCC(C)(C)C)CC4)c3cc2C(C)C)cn2ncnc12` [Example 197, 6-isopropyl-5-(8-methoxy-[1,2,4]triazolo[1,5-a]pyridin-6-yl)-1-((1s,4s)-4-(neopentylamino)cyclohexyl)-1,3-dihydro-2H-benzo[d]imidazol-2-one]: the IC50 against human TLR7 amounted to 0.8 nM; against human TLR8, 0.04 nM.
Take `COCCN1CCC(n2c(=O)[nH]c3cc(-c4cc(OC)c5ncnn5c4)c(C(C)C)cc32)CC1` [Example 223, 6-isopropyl-5-(8-methoxy-[1,2,4]triazolo[1,5-a]pyridin-6-yl)-1-(1-(2-methoxyethyl)piperidin-4-yl)-1,3-dihydro-2H-benzo[d]imidazol-2-one]: the IC50 stood at 16.9 nM against human TLR7 and 9.01 nM against human TLR8.
As to `Cc1cc2c(cc1-c1cc(C)c3ncnn3c1)[nH]c(=O)n2[C@H]1CCCN(C(C)C)C1` [Example 13, (S)-1-(1-isopropylpiperidin-3-yl)-6-methyl-5-(8-methyl-[1,2,4]triazolo[1,5-a]pyridin-6-yl)-1,3-dihydro-2H-benzo[d]imidazol-2-one], the results for the IC50 at human TLR7 and on human TLR8 were 124 nM and 62.9 nM, respectively.
For the compound `CCN1CCC[C@@H](n2c(=O)[nH]c3cc(-c4cc(C)c5ncnn5c4)c(C)cc32)C1` [Example 16, (R)-1-(1-ethylpiperidin-3-yl)-6-methyl-5-(8-methyl-[1,2,4]triazolo[1,5-a]pyridin-6-yl)-1,3-dihydro-2H-benzo[d]imidazol-2-one], the IC50 amounted to 17 nM at human TLR7 and 31.4 nM against human TLR8.
Take `CCc1cc2c(cc1-c1cc(OC)c3ncnn3c1)[nH]c(=O)n2[C@@H]1CCCN(C(C)C)C1` [Example 172, (R)-6-ethyl-1-(1-isopropylpiperidin-3-yl)-5-(8-methoxy-[1,2,4]triazolo[1,5-a]pyridin-6-yl)-1,3-dihydro-2H-benzo[d]imidazol-2-one]: the IC50 was 1.45 nM on human TLR7 and 1.75 nM against human TLR8.
For `COc1c(C)c(-c2cc3[nH]c(=O)n(C4CCC(N5CCC(F)(F)CC5)CC4)c3cc2C(C)C)cn2ncnc12` (single isomer, unassigned) [Example 229, 1-(4-(4,4-difluoropiperidin-1-yl)cyclohexyl)-6-isopropyl-5-(8-methoxy-7-methyl-[1,2,4]triazolo[1,5-a]pyridin-6-yl)-1,3-dihydro-2H-benzo[d]imidazol-2-one], the results for the IC50 against human TLR7 and at human TLR8 were 7.31 nM and 2.18 nM, respectively.
Consider `CCc1cc2c(cc1-c1cc(OC)c3ncnn3c1)[nH]c(=O)n2[C@@H]1CCCN(CC(C)C)C1` [Example 177, (R)-6-ethyl-1-(1-isobutylpiperidin-3-yl)-5-(8-methoxy-[1,2,4]triazolo[1,5-a]pyridin-6-yl)-1,3-dihydro-2H-benzo[d]imidazol-2-one], for which the results for the IC50 against human TLR7 and against human TLR8 were 1.07 nM and 4.34 nM, respectively.
The corresponding values for `CCc1cc2c(cc1-c1cc(OC)c3ncnn3c1)[nH]c(=O)n2[C@@H]1CCCN(C2CCOC2)C1` (stereo partly drawn) [Example 212, 6-ethyl-5-(8-methoxy-[1,2,4]triazolo[1,5-a]pyridin-6-yl)-1-((3R)-1-(tetrahydrofuran-3-yl)piperidin-3-yl)-1,3-dihydro-2H-benzo[d]imidazol-2-one] are 25.4 nM and 4.4 nM.
For `Cc1cc2c(cc1-c1cc(C)c3ncnn3c1)[nH]c(=O)n2[C@@H]1CCCN(C(C)C)C1` [Example 17, (R)-1-(1-isopropylpiperidin-3-yl)-6-methyl-5-(8-methyl-[1,2,4]triazolo[1,5-a]pyridin-6-yl)-1,3-dihydro-2H-benzo[d]imidazol-2-one], the IC50 against human TLR7 was 13.1 nM; at human TLR8, 14.5 nM.
The corresponding values for `CCc1cc2c(cc1-c1cc(OC)c3ncnn3c1)[nH]c(=O)n2[C@@H]1CCCN(C2CCOC2)C1` (stereo partly drawn) [Example 213, 6-ethyl-5-(8-methoxy-[1,2,4]triazolo[1,5-a]pyridin-6-yl)-1-((3R)-1-(tetrahydrofuran-3-yl)piperidin-3-yl)-1,3-dihydro-2H-benzo[d]imidazol-2-one] are 37.3 nM and 4.62 nM.
The corresponding values for `COc1cc(-c2cc3[nH]c(=O)n([C@H]4CC[C@@H](NCC5CCOCC5)CC4)c3cc2C(C)C)cn2ncnc12` [Example 196, 6-isopropyl-5-(8-methoxy-[1,2,4]triazolo[1,5-a]pyridin-6-yl)-1-((1s,4s)-4-(((tetrahydro-2H-pyran-4-yl)methyl)amino)cyclohexyl)-1,3-dihydro-2H-benzo[d]imidazol-2-one] are 4.1 nM and 0.05 nM.
`CCCN(CCC)[C@H]1CC[C@@H](n2c(=O)[nH]c3cc(-c4cn5ncnc5c(C)c4C)c(C(C)C)cc32)CC1` [Example 199, 5-(7,8-dimethyl-[1,2,4]triazolo[1,5-a]pyridin-6-yl)-1-((1s,4s)-4-(dipropylamino)cyclohexyl)-6-isopropyl-1,3-dihydro-2H-benzo[d]imidazol-2-one]: the IC50 against human TLR7 is 5.03 nM; on human TLR8 it was 0.53 nM.
Regarding `Cc1c(-c2cc3[nH]c(=O)n([C@H]4CC[C@@H](NC5CCOCC5)CC4)c3cc2C(C)C)cn2ncnc2c1C` [Example 187, 5-(7,8-dimethyl-[1,2,4]triazolo[1,5-a]pyridin-6-yl)-6-isopropyl-1-((1s,4s)-4-((tetrahydro-2H-pyran-4-yl)amino)cyclohexyl)-1,3-dihydro-2H-benzo[d]imidazol-2-one], the IC50 at human TLR7 came to 4.09 nM; on human TLR8, 0.8 nM.
On to `COc1cc(-c2cc3[nH]c(=O)n([C@@H]4CCCN(C5CCCOC5)C4)c3cc2C(C)C)cn2ncnc12` (single isomer, unassigned) [Example 218], for which the IC50 against human TLR7 amounted to 5.33 nM; at human TLR8, 5.19 nM.

The term IC50 denotes the point on the concentration scale where inhibition reaches its midpoint. Lower therefore signals greater potency in that assay.
